Measurements taken from PMC4503722, “Novel Phenotypic Outcomes Identified for a Public Collection of Approved Drugs from a Publicly Accessible Panel of Assays” (PLoS ONE, 2015).
Like-named read-outs stand apart in the source and are kept apart here.

Key:
[1] = tested on: ECFC/ADSC co-culture cell nuclei number; settings: for IC50: read-out: VEGF_ADSC\ECFC Angio Hoechst NucArea summarized IC50
[2] = tested on: endothelial tube formation in co-cultures of ECFCs and ADSCs treated with VEGF; test: cells; format: cell-based, human; settings: for IC50: read-out: VEGF_ADSC\ECFC Angio CD31 TubeArea summarized IC50
HeLa cells = test: cells; format: cell-based;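 for Hela CellCycMod PI 4N summarized IC50: value tracks stimulation of 4N DNA content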

| SMILES | VEGF_ADSC\ECFC Angio Hoechst NucArea IC50/EC50 [1] [µM] | VEGF_ADSC\ECFC Angio CD31 TubeArea IC50/EC50 [2] [µM] | further results |
| --- | --- | --- | --- |
| CS(=O)(=O)O.Cc1c(O)cccc1C(=O)N[C@@H](CSc1ccccc1)[C@H](O)CN1C[C@H]2CCCC[C@H]2C[C@H]1C(=O)NC(C)(C)C [NCGC00090782-06] | > 10 | > 10 | – |
| O=C1OC(OC(=O)c2cccnc2Nc2cccc(C(F)(F)F)c2)c2ccccc21 (centres unmarked) [NCGC00167754-02] | > 10 | > 10 | – |
| OCCN1CCN(CCCN2c3ccccc3Sc3ccc(C(F)(F)F)cc32)CC1 [NCGC00015436-11] | > 10 | > 10 | – |
| O=C1CC(c2ccc(Cl)cc2)CC(=O)N1 [NCGC00262922-01] | – | – | IC50/EC50, VEGF_ADSC\ECFC Angio Hoechst NucArea (assay number 3) [1]: > 10 µM; IC50/EC50, VEGF_ADSC\ECFC Angio CD31 TubeArea (assay number 2) [2]: > 10 µM |
| CCOC(=O)C1=C[C@]2(CC)CCCN3CCc4c(n1c1ccccc41)[C@@H]32 [NCGC00018204-13] | – | – | IC50/EC50, VEGF_ADSC\ECFC Angio Hoechst NucArea (assay number 3) [1]: > 10 µM; IC50/EC50, VEGF_ADSC\ECFC Angio CD31 TubeArea (assay number 2) [2]: > 10 µM |
| CCOC(=O)NC(C)(C)Cc1ccc(Cl)cc1 [NCGC00183835-01] | – | – | IC50 [1]: > 10 µM; IC50 [2]: > 10 µM |
| O=C(N/N=C/c1ccccc1O)c1ccncc1 [NCGC00160648-02] | – | – | IC50 [1]: > 10 µM; IC50 [2]: > 10 µM |
| CC(=O)O[C@H]1C[C@H](O[C@H]2[C@@H](O)C[C@H](O[C@@H]3[C@@H](O)C[C@H](O[C@H]4CC[C@@]5(C)[C@H](CC[C@@H]6[C@H]5C[C@@H](O)[C@]5(C)[C@@H](C7=CC(=O)OC7)CC[C@]65O)C4)O[C@@H]3C)O[C@@H]2C)O[C@H](C)[C@H]1O[C@@H]1O[C@H](CO)[C@@H](O)[C@H](O)[C@@H]1O [NCGC00344547-01] | 0.2792 | 0.0702 | – |
| COc1cccc2c1C(=O)c1c(O)c3c(c(O)c1C2=O)C[C@@](O)(C(=O)CO)C[C@@H]3O[C@H]1C[C@H](N)[C@H](O)[C@H](C)O1.Cl [NCGC00263918-03] | 0.114 | 0.0429 | – |
| CS(=O)(=O)CCNCc1ccc(-c2ccc3ncnc(Nc4ccc(OCc5cccc(F)c5)c(Cl)c4)c3c2)o1 [NCGC00167507-04] | > 10 | > 10 | – |
| CCCOC(=O)c1cc(O)c(O)c(O)c1 [NCGC00164234-04] | – | – | IC50 [1]: > 10 µM; IC50 [2]: > 10 µM |
| COc1ccc(CCN2CCC(Nc3nc4ccccc4n3Cc3ccc(F)cc3)CC2)cc1 [NCGC00016913-14] | > 10 | > 10 | – |
| CC[C@@H]1C(=O)OC[C@@H]1Cc1cncn1C [NCGC00023339-16] | > 10 | > 10 | – |
| CC(=O)Oc1ccc(C2(c3ccc(OC(C)=O)cc3)C(=O)Nc3ccccc32)cc1 [NCGC00159420-04] | – | – | IC50/EC50, VEGF_ADSC\ECFC Angio Hoechst NucArea (assay number 3) [1]: > 10 µM; IC50/EC50, VEGF_ADSC\ECFC Angio CD31 TubeArea (assay number 2) [2]: > 10 µM |
| Cn1ccc2cc3c(cc21)CCN3C(=O)Nc1cccnc1 [NCGC00015917-06] | – | – | IC50/EC50, VEGF_ADSC\ECFC Angio Hoechst NucArea (assay number 3) [1]: > 10 µM; IC50/EC50, VEGF_ADSC\ECFC Angio CD31 TubeArea (assay number 2) [2]: > 10 µM |
| CCCCC(CC)COC(=O)C(C#N)=C(c1ccccc1)c1ccccc1 (centres unmarked) [NCGC00091585-05] | 3.289 | > 10 | – |
| O=C1NCN(c2ccccc2)C12CCN(CCCC(c1ccc(F)cc1)c1ccc(F)cc1)CC2 [NCGC00015424-11] | – | – | IC50/EC50, VEGF_ADSC\ECFC Angio Hoechst NucArea (assay number 3) [1]: 8.086 µM; IC50/EC50, VEGF_ADSC\ECFC Angio CD31 TubeArea (assay number 2) [2]: > 10 µM |
| CCN(CC)C(=O)/C(C#N)=C/c1cc(O)c(O)c([N+](=O)[O-])c1 [NCGC00164555-03] | > 10 | > 10 | – |
| Cc1onc(-c2c(Cl)cccc2Cl)c1C(=O)Cl [NCGC00253649-01] | > 10 | > 10 | – |
| C#C[C@]1(O)CC[C@H]2[C@@H]3CCc4cc(O)ccc4[C@H]3CC[C@@]21C [NCGC00091533-10] | – | – | IC50 [1]: > 10 µM; IC50 [2]: > 10 µM |
| COc1ccc([C@@H]2Sc3ccccc3NC(=O)[C@@H]2O)cc1 [NCGC00253672-01] | > 10 | > 10 | – |
| COC(=O)C1=C(C)NC(C)=C(C(=O)OC(C)(C)CN(C)CCC(c2ccccc2)c2ccccc2)C1c1cccc([N+](=O)[O-])c1.Cl (centres unmarked) [NCGC00167492-03] | > 10 | > 10 | – |
| CCCCC(=O)O[C@H]1CC[C@H]2[C@@H]3CCc4cc(O)ccc4[C@@H]3CC[C@]12C [NCGC00022275-03] | – | – | IC50/EC50, VEGF_ADSC\ECFC Angio Hoechst NucArea (assay number 3) [1]: 8.298 µM; IC50/EC50, VEGF_ADSC\ECFC Angio CD31 TubeArea (assay number 2) [2]: > 10 µM |
| COc1cc(S(N)(=O)=O)cc(C(=O)O)c1OC [NCGC00253657-01] | > 10 | > 10 | – |
| COc1cccc(CCc2ccccc2OCC(CN(C)C)OC(=O)CCC(=O)O)c1.Cl (centres unmarked) [NCGC00167489-03] | > 10 | > 10 | – |

| SMILES | VEGF_ADSC\ECFC Angio Hoechst NucArea IC50/EC50 [1] [µM] | VEGF_ADSC\ECFC Angio CD31 TubeArea IC50/EC50 [2] [µM] | further results |
| --- | --- | --- | --- |
| CC(=O)c1ccc(OCC(=O)N2CCCCC2)cc1 [NCGC00183022-01] | > 10 | > 10 | – |
| O=c1c(-c2ccc(O)cc2)coc2cc(O)cc(O)c12 [NCGC00015479-19] | – | – | IC50/EC50, VEGF_ADSC\ECFC Angio Hoechst NucArea (assay number 3) [1]: > 10 µM; IC50/EC50, VEGF_ADSC\ECFC Angio CD31 TubeArea (assay number 2) [2]: > 10 µM |
| CCCCCCCCCCCC[N+](C)(C)CCOc1ccccc1 [NCGC00091010-03] | – | – | IC50 [1]: 7.29 µM; IC50 [2]: 3.38 µM |
| CN1CCC[C@@H]1CCO[C@](C)(c1ccccc1)c1ccc(Cl)cc1.O=C(O)/C=C/C(=O)O [NCGC00016710-05] | > 10 | > 10 | – |
| Oc1ccc(/C=C/c2cc(O)cc(O)c2)cc1 [NCGC00017352-24] | – | – | IC50/EC50, VEGF_ADSC\ECFC Angio Hoechst NucArea (assay number 3) [1]: > 10 µM; IC50/EC50, VEGF_ADSC\ECFC Angio CD31 TubeArea (assay number 2) [2]: > 10 µM |
| Cc1ccc(C(=O)Oc2ccc(C(O)CNC(C)(C)C)cc2OC(=O)c2ccc(C)cc2)cc1 (centres unmarked) [NCGC00253593-01] | > 10 | > 10 | – |
| CCN1CCC[C@H]1CNC(=O)c1c(OC)ccc(Br)c1OC [NCGC00024870-06] | > 10 | > 10 | – |
| COC1=C(OC)C(=O)C(CCCCCCCCCCO)=C(C)C1=O [NCGC00160514-02] | > 10 | > 10 | – |
| Nc1ccc(O)cc1 [NCGC00090816-05] | – | – | IC50/EC50, VEGF_ADSC\ECFC Angio Hoechst NucArea (assay number 3) [1]: > 10 µM; IC50/EC50, VEGF_ADSC\ECFC Angio CD31 TubeArea (assay number 2) [2]: > 10 µM |
| Cc1c(C(=O)NN2CCCCC2)nn(-c2ccc(Cl)cc2Cl)c1-c1ccc(Cl)cc1 [NCGC00164572-02] | – | – | IC50/EC50, VEGF_ADSC\ECFC Angio Hoechst NucArea (assay number 3) [1]: > 10 µM; IC50/EC50, VEGF_ADSC\ECFC Angio CD31 TubeArea (assay number 2) [2]: > 10 µM |
| CCCCCCCCCCCCCCCCCCCCCC(=O)Nc1ccn([C@@H]2O[C@H](CO)[C@@H](O)[C@@H]2O)c(=O)n1 [NCGC00167515-02] | > 10 | > 10 | – |
| CC[N+](CC)(CC)CCOc1ccc(/C=C/c2ccccc2)cc1 [NCGC00025122-02] | – | – | IC50 [1]: > 10 µM; IC50 [2]: > 10 µM |
| CCCCCCCCCCC[C@@H](C[C@@H]1OC(=O)[C@H]1CCCCCC)OC(=O)[C@H](CC(C)C)NC=O [NCGC00165856-03] | > 10 | > 10 | – |
| CCCCCCCCOc1ccccc1C(=O)Nc1ccc(C(=O)OCC[N+](C)(CC)CC)cc1.[Br-] [NCGC00163507-03] | 8.466 | > 10 | – |
| COc1ccccc1N1CCN(CC(O)COc2cc(OC)c(OC)c(OC)c2)CC1 (centres unmarked) [NCGC00253761-01] | > 10 | > 10 | – |
| O=C(O)c1ccc2[nH]cc(CCCCN3CC=C(c4ccccc4)CC3)c2c1 [NCGC00092328-02] | > 10 | > 10 | – |
| Cc1c(C)c2c(c(C)c1OC(=O)CCC(=O)O)CC[C@@](C)(CCC[C@H](C)CCC[C@H](C)CCCC(C)C)O2 [NCGC00167561-03] | – | – | IC50 [1]: > 10 µM; IC50 [2]: > 10 µM |
| O=[N+]([O-])C(Br)(CO)CO [NCGC00164057-03] | – | – | IC50 [1]: > 10 µM; IC50 [2]: > 10 µM |
| CCN[C@@H](C)Cc1cccc(C(F)(F)F)c1 [NCGC00247710-02] | > 10 | > 10 | – |
| CC[C@H](C)C(=O)O[C@H]1C[C@H](O)C=C2C=C[C@H](C)[C@H](CC[C@@H](O)C[C@@H](O)CC(=O)O)[C@H]21 [pravastatin, reference compound] | – | – | inhibition of endothelial tube / cord formation (in words) ([2]; ECFC/ADSC co-culture): did not inhibit endothelial tube formation |
| CN(C)C(=S)SSC(=S)N(C)C [NCGC00091563-12] | – | – | IC50 [1]: > 10 µM |
| CCOc1ccc2nc3cc(N)ccc3c(N)c2c1 [NCGC00096056-02] | – | – | IC50 (HeLa cells; assay number 14, 2N, read-out: Hela CellCycMod PI 2N summarized IC50): > 10 µM; IC50 (HeLa cells; assay number 15, S phase, read-out: Hela CellCycMod PI S Phase summarized IC50): > 10 µM; IC50 (HeLa cells; assay number 16, 4N, read-out: Hela CellCycMod PI 4N summarized IC50): > 10 µM; IC50 (HeLa cells; assay number 17, MI, read-out: Hela CellCycMod PI MI summarized IC50): > 10 µM; IC50 (HeLa cells; assay number 18, cell number, read-out: Hela CellCycMod PI Cell Number summarized IC50): 2.11 µM; IC50 [1]: > 10 µM |
| CC(C)c1c(C(=O)Nc2ccccc2)c(-c2ccccc2)c(-c2ccc(F)cc2)n1CC[C@@H](O)C[C@@H](O)CC(=O)O [Atorvastatin, reference compound] | – | – | inhibition of endothelial tube / cord formation (in words) [2]: did not inhibit endothelial tube formation |
| CC(C)(C)CC(C)(C)c1ccc(OCCOCC[N+](C)(C)Cc2ccccc2)cc1 [NCGC00016373-08] | – | – | IC50 [2]: 3.74 µM |
